From publication PMC10765375, “Crystal structure and enzymology of Solanum tuberosum inositol tris/tetrakisphosphate kinase 1 (StITPK1)” (Biochemistry, 2023)
pKi: −log10 of the molar value. “Also recorded” adds a separate entry of the source. Where two headings read alike, the source gives them in different places.

Legend:
[1] = target: T1, StITPK1 (Solanum tuberosum, UniProt A4H2J0); test: Fluorescence polarization displacement of 2-FAM-InsP5; format: binding; settings: Cheng-Prusoff with Kd 48 nM
Excerpt: To determine the relative strengths of binding of different inositol phosphate and inositol pyrophosphate substrates of StITPK1 we undertook fluorescence polarization experiments with 2-FAM-InsP5 [35]. […] A saturation curve for binding of 2-FAM-InsP5 to StITPK1 is shown (Figure S5) and displacement curves are shown for diverse inositol phosphates (Figure 2). The structures of these compounds are shown (Figure S1). […]
Fluorescence polarization (anisotropy)
A curve for binding of 2-FAM-InsP5 to StITPK1 was obtained by incubation of 2 nM 2-FAM-InsP5 [1] with increasing concentration (1-500 nM) of StITPK1 in 20 mM HEPES pH 6.5, 1 mM EDTA, 100 mM NaCl, after. Thereafter, displacement assays were performed by titration of inositol phosphate, inositol pyrophosphate […]
or analog thereof with 2 nM 2-FAM-InsP5 and 50 nM StITPK1. Compounds were tested for displacement in a range of 1 nM - 50 µM. Fluorescence polarization was measured in 384-well, black, low-binding plates, Corning product 3573. Binding and displacement curves (anisotropy) were log transformed and fitted to a 4-parameter logistic (in GraphPad Prism v.6 software (GraphPad Software Inc., San Diego, USA). Fitting of the […]
Substituting the value of Kd for KM in the Cheng-Prusoff equation for competitive inhibition: […]
with concentration of 2-FAM-InsP5 [S], yielded Ki with confidence intervals adjusted by linear approximation.
M.; Jamieson, A. G.; Potter, B. V.; Schwabe, J. W., Insights into the activation mechanism of class I HDAC complexes by inositol phosphates. Nat Commun 2016, 7, 11262. […]

[2] = target: T1, StITPK1; test: Kinase assay with ATP, HPLC of products; format: biochemical; settings: for Product formation (separate 12h experiment) / Product formation (3h) / Product formation (12h): 1 mM substrate; for kinase substrate status: with ATP, HPLC; for Product formation (3h) / Product formation (12h): 25°C
Protocol: (§1) Kinase assays were performed with ATP-regeneration as described for ATP-grasp kinases ITPK1/2 and VIH1/2 [2-3, 27-29], here in 20 mM HEPES pH 6.5, 1 mM MgCl2, 0.5 mM ATP and 1 mM inositol phosphate substrate. The low rate constants for phospho-kinase activity and the low sensitivity of NMR, PAGE and HPLC […]
[2-3, 27-29], here with or without 4 µM protein for 3h or 12h at 25 °C. Competition/inhibition assays were […]
InsP6, and competitor, typically 0.5 mM, incubated with or without 3 µM protein for 2 h at 25 °C . […]
(§2) 0.5 mM inositol pyrophosphate substrate incubated with 4 µM protein at 25 °C . HPLC analysis and detection of inositol phosphates by complexation with ferric ion was performed as described. Peak area data were analysed with the chromatography Jasco ChromNav v.2 software and x,y data were imported into GraphPad Prism v.6 software (GraphPad Software Inc., San Diego, USA) for plotting of chromatograms without additional processing of the data. […]

[3] = target: T1, StITPK1; test: Reverse (phosphotransfer to ADP) assay, HPLC; format: biochemical; settings: 0.5 mM ADP, 12h
Protocol: The low rate constants for phospho-kinase activity and the low sensitivity of NMR, PAGE and HPLC […]
(§3) [2-3, 27-29], here with or without 4 µM protein for 3h or 12h at 25 °C. […]
as §2, with “(phosphotransfer to ADP) assays were performed with 20 mM HEPES pH 6.5, 1 mM MgCl2, 0.5mM ADP and 0.5” for “0.5”

[4] = target: T1, StITPK1; test: Competition/inhibition of Ins(1,2,3,4,5)P5 5-phospho-kinase activity, HPLC; format: biochemical; settings: for % inhibition at 3h, Ins(1,2,3,4,5)P5 substrate: 0.5 mM competing substrate/inhibitor, 1 mM Ins(1,2,3,4,5)P5, 3h experiment; for inhibition of Ins(1,2,3,4,5)P5 phospho-kinase activity: 0.5 mM competitor
[5] = target: T2, AtITPK1; test: Kinase assay with ATP, HPLC of products; format: biochemical, Arabidopsis thaliana; settings: with ATP, HPLC
T2 construct: made in house
Protocol: as §1, §3, §2

[6] = 2 nM 2-FAM-InsP5, 50 nM StITPK1, pH 6.5, read-out: Ki for displacement of 2-FAM-InsP5
[7] = Ki for displacement of 2-FAM-InsP5, 2 nM 2-FAM-InsP5, 50 nM StITPK1, pH 6.5

T1 sequence (A4H2J0 entry or part of it): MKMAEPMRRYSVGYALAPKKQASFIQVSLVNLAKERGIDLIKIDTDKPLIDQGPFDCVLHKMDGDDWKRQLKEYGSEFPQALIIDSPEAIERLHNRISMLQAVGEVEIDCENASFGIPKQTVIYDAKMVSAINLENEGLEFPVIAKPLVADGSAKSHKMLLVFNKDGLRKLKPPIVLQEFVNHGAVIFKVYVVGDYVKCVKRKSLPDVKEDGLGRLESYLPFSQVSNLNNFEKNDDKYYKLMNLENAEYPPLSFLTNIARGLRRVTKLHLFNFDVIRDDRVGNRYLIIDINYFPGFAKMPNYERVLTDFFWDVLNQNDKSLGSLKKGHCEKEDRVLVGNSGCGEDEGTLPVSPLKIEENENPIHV

O=P(O)(O)O[C@@H]1[C@@H](OP(=O)(O)O)[C@H](OP(=O)(O)O)[C@@H](O)[C@H](OP(=O)(O)O)[C@@H]1OP(=O)(O)O [Ins(1,2,3,4,5)P5, 1D-myo-inositol 1,2,3,4,5-pentakisphosphate]
pKi [1, 6]: 6.37 | Product formation (separate 12h experiment) [2]: 257 μM/μM protein | kinase substrate status [2]: showing phospho-kinase activity

O=P(O)(O)O[C@@H]1[C@H](OP(=O)(O)O)[C@H](OP(=O)(O)OP(=O)(O)O)[C@@H](OP(=O)(O)O)[C@H](OP(=O)(O)OP(=O)(O)O)[C@H]1OP(=O)(O)O [3,5-[PP]2-InsP4, 1D-3,5-bis-diphospho-myo-inositol 1,2,4,6-tetrakisphosphate]
substrate for phosphotransfer to ADP [3]: both enantiomers are substrates

O=P(O)(O)CP(=O)(O)OC1C(OP(=O)(O)O)C(OP(=O)(O)O)C(OP(=O)(O)O)C(OP(=O)(O)O)C1OP(=O)(O)O (stereo not drawn) [3-PCP-InsP5, myo-inositol 1,2,4,5,6-penta-phosphate-3-methylenediphosphonate]
% inhibition at 3h, Ins(1,2,3,4,5)P5 substrate [4]: 78% | inhibition of Ins(1,2,3,4,5)P5 phospho-kinase activity [4]: potent inhibitors | kinase substrate status [5]: better substrates | Product formation (3h) [2]: 41 μM/μM protein | Product formation (12h) [2]: 232 μM/μM protein | kinase substrate status [2]: better substrates

O=C(O)CP(=O)(O)O[C@H]1[C@H](OP(=O)(O)O)[C@@H](OP(=O)(O)O)[C@@H](OP(=O)(O)O)[C@@H](OP(=O)(O)O)[C@@H]1OP(=O)(O)O [5-PA-InsP5, myo-inositol 1,2,3,4,6-penta-phosphate-5-phosphonoacetate]
% inhibition at 3h, Ins(1,2,3,4,5)P5 substrate [4]: 44% | kinase substrate status [5]: weak substrate | Product formation (3h) [2]: 50 μM/μM protein | Product formation (12h) [2]: 236 μM/μM protein | kinase substrate status [2]: strongest phospho-kinase substrate after myo-InsP6

O=P(O)(O)O[C@@H]1[C@H](OP(=O)(O)O)[C@H](OP(=O)(O)O)[C@@H](O)[C@H](OP(=O)(O)O)[C@H]1OP(=O)(O)O [Ins(1,2,3,5,6)P5, 1D-myo-inositol 1,2,3,5,6-pentakisphosphate]
pKi [1, 6]: 6.54 | Product formation (separate 12h experiment) [2]: 0 μM/μM protein | kinase substrate status [2]: lacking activity

O=P(O)(O)OC1C(OP(=O)(O)O)C(OP(=O)(O)O)C(OP(=O)(O)O)C(OP(=O)(O)O)C1OP(=O)(O)O (stereo not drawn) [scyllo-InsP6, scyllo-inositol 1,2,3,4,5,6-hexakisphosphate]
pKi [1, 7]: 6.37 | Product formation (12h) [2]: 0 μM/μM protein | Product formation (separate 12h experiment) [2]: 0 μM/μM protein | kinase substrate status [2]: failure of StITPK1 to phosphorylate

O=P(O)(O)CP(=O)(O)O[C@@H]1[C@H](OP(=O)(O)O)[C@H](OP(=O)(O)O)[C@@H](OP(=O)(O)O)[C@H](OP(=O)(O)O)[C@H]1OP(=O)(O)O [1-PCP-InsP5, myo-inositol 2,3,4,5,6-penta-phosphate-1-methylenediphosphonate]
% inhibition at 3h, Ins(1,2,3,4,5)P5 substrate [4]: 61% | inhibition of Ins(1,2,3,4,5)P5 phospho-kinase activity [4]: potent inhibitors | kinase substrate status [5]: better substrates | Product formation (3h) [2]: 22 μM/μM protein | Product formation (12h) [2]: 145 μM/μM protein | kinase substrate status [2]: better substrates

O=P(O)(O)OC1[C@@H](OP(=O)(O)O)[C@H](OP(=O)(O)O)C(OP(=O)(O)OP(=O)(O)O)[C@@H](OP(=O)(O)O)[C@H]1OP(=O)(O)O (stereo partly drawn) [3-PP-InsP5, 1D-3-diphospho-myo-inositol 1,2,4,5,6-pentakisphosphate]
% inhibition at 3h, Ins(1,2,3,4,5)P5 substrate [4]: 71% | kinase substrate status [5]: a stronger substrate than 1-PP-InsP5 | Product formation (3h) [2]: 35 μM/μM protein | Product formation (12h) [2]: 193 μM/μM protein | kinase substrate status [2]: phospho-kinase substrates; also recorded: a stronger substrate than 1-PP-InsP5

O=C(CP(=O)(O)O)NC1C(OP(=O)(O)O)C(OP(=O)(O)O)C(OP(=O)(O)O)C(OP(=O)(O)O)C1OP(=O)(O)O (stereo not drawn) [5-PCH2AM-InsP5, 5-deoxy-5-(phosphonoacetamido)-myo-inositol 1,2,3,4,6-pentakisphosphate]
pKi [1, 7]: 6.05 | % inhibition at 3h, Ins(1,2,3,4,5)P5 substrate [4]: 43% | Product formation (3h) [2]: 0 μM/μM protein | Product formation (12h) [2]: 25 μM/μM protein | kinase substrate status [2]: very weak substrates

O=P(O)(O)OC1C(OP(=O)(O)O)C(OP(=O)(O)O)C(OP(=O)(O)O)C(OP(=O)(O)O)C1OP(=O)(O)O [D-chiro-InsP6, 1-D-chiro-inositol 1,2,3,4,5,6-hexakisphosphate]
pKi [1, 7]: 6.81 | Product formation (12h) [2]: 0 μM/μM protein | Product formation (separate 12h experiment) [2]: 0 μM/μM protein | kinase substrate status [2]: not a substrate

O=P(O)(O)OC1C(OP(=O)(O)O)C(OP(=O)(O)O)C(OP(=O)(O)O)C(OP(=O)(O)O)C1OP(=O)(O)O (stereo not drawn) [neo-InsP6, neo-inositol 1,2,3,4,5,6-hexakisphosphate]
pKi [1, 7]: 6.95 | Product formation (12h) [2]: 0 μM/μM protein | Product formation (separate 12h experiment) [2]: 0 μM/μM protein | kinase substrate status [2]: failure of StITPK1 to phosphorylate

O=P(O)(O)O[C@@H]1[C@@H](OP(=O)(O)O)[C@H](OP(=O)(O)O)[C@@H](O)[C@@H](O)[C@H]1OP(=O)(O)O [Ins(1,4,5,6)P4, 1D-myo-inositol 1,4,5,6-tetrakisphosphate]
pKi [1, 6]: 5.59 | Product formation (separate 12h experiment) [2]: 41 μM/μM protein

O=C(NC1C(OP(=O)(O)O)C(OP(=O)(O)O)C(OP(=O)(O)O)C(OP(=O)(O)O)C1OP(=O)(O)O)C(F)(F)P(=O)(O)O (stereo not drawn) [5-PCF2AM-InsP5, 5-deoxy-5-(phosphonodifluoroacetamido)-myo-inositol 1,2,3,4,6-pentakisphosphate]
pKi [1, 7]: 6.97 | % inhibition at 3h, Ins(1,2,3,4,5)P5 substrate [4]: 67% | Product formation (3h) [2]: 0 μM/μM protein | Product formation (12h) [2]: 0 μM/μM protein | kinase substrate status [2]: not a substrate

O=P(O)(O)O[C@@H]1[C@@H](OP(=O)(O)O)[C@H](OP(=O)(O)OP(=O)(O)O)[C@@H](OP(=O)(O)O)[C@H](OP(=O)(O)OP(=O)(O)O)[C@@H]1OP(=O)(O)O [1,5-[PP]2-InsP4, 1D-1,5-bis-diphospho-myo-inositol 2,3,4,6-tetrakisphosphate]
substrate for phosphotransfer to ADP [3]: both enantiomers are substrates

O=P(O)(O)O[C@@H]1[C@@H](OP(=O)(O)O)[C@@H](OP(=O)(O)O)[C@@H](OP(=O)(O)OP(=O)(O)O)[C@H](OP(=O)(O)O)[C@H]1OP(=O)(O)O [1-PP-InsP5, 1D-1-diphospho-myo-inositol 2,3,4,5,6-pentakisphosphate]
% inhibition at 3h, Ins(1,2,3,4,5)P5 substrate [4]: 76% | Product formation (3h) [2]: 9 μM/μM protein | Product formation (12h) [2]: 75 μM/μM protein | kinase substrate status [2]: the weaker substrate

O=P(O)(O)CP(=O)(O)OC1C(OP(=O)(O)O)C(OP(=O)(O)O)C(OP(=O)(O)O)C(OP(=O)(O)CP(=O)(O)O)C1OP(=O)(O)O (stereo not drawn) [1,5-[PCP]2-InsP4]
substrate for phosphotransfer to ADP [3]: neither

O=P(O)(O)CP(=O)(O)OC1C(OP(=O)(O)O)C(OP(=O)(O)O)C(OP(=O)(O)O)C(OP(=O)(O)O)C1OP(=O)(O)O (stereo not drawn) [5-PCP-InsP5, myo-inositol 1,2,3,4,6-penta-phosphate-5-methylenediphosphonate]
pKi [1, 6]: 7.00 | % inhibition at 3h, Ins(1,2,3,4,5)P5 substrate [4]: 60% | Product formation (3h) [2]: 0 μM/μM protein | Product formation (12h) [2]: 0 μM/μM protein
